Measurements: patent EP0993459B1, “COMPOUNDS USEFUL FOR INHIBITION OF FARNESYL PROTEIN TRANSFERASE” (SCHERING CORPORATION, priority 1997, dated 1998)
pIC50: −log10 of the molar value.

Assays:
[1] = target: farnesyl protein transferase (Homo sapiens, UniProt P49354+P49356); assay: FPT IC50, inhibition of farnesyl protein transferase, in vitro enzyme assay (procedure of WO 95/10516); type: biochemical; details: one range stated for the whole group of listed compounds, no individual values
Method: (§1) FPT IC50 (inhibition of farnesyl protein transferase, in vitro enzyme assay) and COS Cell IC50 (Cell-Based Assay) were determined following the assay procedures described in WO 95/10516, published April 20, 1995. GGPT IC50 (inhibition of geranylgeranyl protein transferase, in vitro enzyme assay), Cell Mat Assay, and anti-tumor activity (in vivo anti-tumor studies) could be determined by the assay procedures described in WO 95/10516. The disclosure of WO 95/10516 is incorporated herein by reference thereto.

COS Cell = COS Cell IC50, cell-based assay (procedure of WO 95/10516)
Method: as §1

farnesyl protein transferase, sequence (P49356 whole entry, one chain of several): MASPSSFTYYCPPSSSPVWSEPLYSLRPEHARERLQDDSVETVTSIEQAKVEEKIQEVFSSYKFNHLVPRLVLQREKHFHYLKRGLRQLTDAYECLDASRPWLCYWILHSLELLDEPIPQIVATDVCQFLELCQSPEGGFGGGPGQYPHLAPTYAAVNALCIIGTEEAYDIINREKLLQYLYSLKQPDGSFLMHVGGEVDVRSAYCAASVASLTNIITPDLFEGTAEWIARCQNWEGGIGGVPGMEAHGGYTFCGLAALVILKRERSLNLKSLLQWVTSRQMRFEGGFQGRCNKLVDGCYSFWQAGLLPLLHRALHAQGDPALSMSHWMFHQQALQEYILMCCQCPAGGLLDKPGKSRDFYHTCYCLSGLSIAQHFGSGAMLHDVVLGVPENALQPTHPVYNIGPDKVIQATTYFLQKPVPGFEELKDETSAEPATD

| SMILES | pIC50 [1] | pIC50 (COS Cell) |
| --- | --- | --- |
| CCOC(=O)C(=O)NC1CCCC(C(=O)N2CCC([C@H]3c4ncc(Br)cc4CCc4cc(Cl)cc(Br)c43)CC2)C1 (some centres unmarked) [Compound 46.0] | ≤ 8.72 | – |
| O=C(O)CON=C1CCC(CC(=O)N2CCC([C@H]3c4ncc(Br)cc4CCc4cc(Cl)cc(Br)c43)CC2)CC1 (some centres unmarked) [Compound 31.0] | ≤ 8.72 | – |
| CC(C)(C)[Si](C)(C)OCCON=C1CCC(CC(=O)N2CCC([C@H]3c4ncc(Br)cc4CCc4cc(Cl)cc(Br)c43)CC2)CC1 (some centres unmarked) [Compound 32.0] | ≤ 8.72 | – |
| NC(=O)N[C@H]1CC[C@@H](C(=O)N2CCC([C@H]3c4ncc(Br)cc4CCc4cc(Cl)cc(Br)c43)CC2)CC1 [Compound 38.0] | ≤ 8.72 | – |
| O=C(CC1CCC2(CC1)OCCO2)N1CCC([C@H]2c3ncc(Br)cc3CCc3cc(Cl)cc(Br)c32)CC1 [Compound 22.0] | ≤ 8.72 | – |
| N[C@H]1CC[C@@H](C(=O)N2CCC([C@H]3c4ncc(Br)cc4CCc4cc(Cl)cc(Br)c43)CC2)CC1 [Compound 37.0] | ≤ 8.72 | – |
| CC(=O)O[C@H]1CC[C@@H](C(=O)N2CCC([C@H]3c4ncc(Br)cc4CCc4cc(Cl)cc(Br)c43)CC2)CC1 [Compound 69.0] | – | 7.52 |
| CC(C)(C)OC(=O)NC1CCCC(C(=O)N2CCC([C@H]3c4ncc(Br)cc4CCc4cc(Cl)cc(Br)c43)CC2)C1 (some centres unmarked) [Compound 43.0] | ≤ 8.72 | – |
| O=C1CCC(C(=O)N2CCC([C@H]3c4ncc(Br)cc4CCc4cc(Cl)cc(Br)c43)CC2)CC1 [Compound 33.0] | ≤ 8.72 | – |
| O=C(C=C1CCC2(CC1)OCCO2)N1CCC([C@H]2c3ncc(Br)cc3CCc3cc(Cl)cc(Br)c32)CC1 [Compound 21.0] | ≤ 8.72 | – |
| O=C([C@H]1CC[C@H](O)CC1)N1CCC([C@H]2c3ncc(Br)cc3CCc3cc(Cl)cc(Br)c32)CC1 [Compound 68.0] | ≤ 8.72 | – |
| O=C1CCC(CC(=O)N2CCC([C@H]3c4ncc(Br)cc4CCc4cc(Cl)cc(Br)c43)CC2)CC1 [Compound 13.0] | ≤ 8.72 | – |
| CC(C)(C)OC(=O)N[C@H]1CC[C@@H](C(=O)N2CCC([C@H]3c4ncc(Br)cc4CCc4cc(Cl)cc(Br)c43)CC2)CC1 [Compound 36.0] | ≤ 8.72 | – |
| CON=C1CCC(C(=O)N2CCC([C@H]3c4ncc(Br)cc4CCc4cc(Cl)cc(Br)c43)CC2)CC1 (some centres unmarked) [Compound 35.0] | ≤ 8.72 | – |
| NC1CCCC(C(=O)N2CCC([C@H]3c4ncc(Br)cc4CCc4cc(Cl)cc(Br)c43)CC2)C1 (some centres unmarked) [Compound 44.0] | ≤ 8.72 | – |
| O=C(CC1CCC(=NO)CC1)N1CCC([C@H]2c3ncc(Br)cc3CCc3cc(Cl)cc(Br)c32)CC1 (some centres unmarked) [Compound 23.0] | ≤ 8.72 | – |
| NC(=O)NC1CCCC(C(=O)N2CCC([C@H]3c4ncc(Br)cc4CCc4cc(Cl)cc(Br)c43)CC2)C1 (some centres unmarked) [Compound 45.0] | ≤ 8.72 | – |
| CS(=O)(=O)N[C@H]1CC[C@@H](C(=O)N2CCC([C@H]3c4ncc(Br)cc4CCc4cc(Cl)cc(Br)c43)CC2)CC1 [Compound 40.0] | ≤ 8.72 | – |

| SMILES | pIC50 [1] | pIC50 (COS Cell) |
| --- | --- | --- |
| O=C([C@H]1CC[C@@H](O)CC1)N1CCC([C@H]2c3ncc(Br)cc3CCc3cc(Cl)cc(Br)c32)CC1 [Compound 70.0] | ≤ 8.72 | – |
| O=C1CCCCC1CC(=O)N1CCC([C@H]2c3ncc(Br)cc3CCc3cc(Cl)cc(Br)c32)CC1 (some centres unmarked) [Compound 18.0] | ≤ 8.72 | – |
| O=C1CCN(CC(=O)N2CCC([C@H]3c4ncc(Br)cc4CCc4cc(Cl)cc(Br)c43)CC2)CC1 [Compound 14.0] | ≤ 8.72 | – |
| CON=C1CCN(CC(=O)N2CCC([C@H]3c4ncc(Br)cc4CCc4cc(Cl)cc(Br)c43)CC2)CC1 [Compound 27.0] | ≤ 8.72 | – |
| O=C(CN1CCC2(CC1)OCCO2)N1CCC([C@H]2c3ncc(Br)cc3CCc3cc(Cl)cc(Br)c32)CC1 [Compound 24.0] | ≤ 8.72 | – |
| COc1ccc2c(c1)CC(CC(=O)N1CCC([C@H]3c4ncc(Br)cc4CCc4cc(Cl)cc(Br)c43)CC1)C2=O (single isomer, unassigned) [Compound 17.0A] | ≤ 8.72 | – |
| O=C1CCC(=CC(=O)N2CCC([C@H]3c4ncc(Br)cc4CCc4cc(Cl)cc(Br)c43)CC2)CC1 [Compound 16.0] | ≤ 8.72 | – |
| O=C(CN1CCC2(CC1)SCCS2)N1CCC([C@H]2c3ncc(Br)cc3CCc3cc(Cl)cc(Br)c32)CC1 [Compound 28.0] | ≤ 8.72 | – |
| CON=C1CCC(CC(=O)N2CCC([C@H]3c4ncc(Br)cc4CCc4cc(Cl)cc(Br)c43)CC2)CC1 (some centres unmarked) [Compound 25.0] | ≤ 8.72 | – |
| O=C1CCCCC1CCC(=O)N1CCC([C@H]2c3ncc(Br)cc3CCc3cc(Cl)cc(Br)c32)CC1 (some centres unmarked) [Compound 19.0] | ≤ 8.72 | – |
| NC(=O)NN=C1CCC(CC(=O)N2CCC([C@H]3c4ncc(Br)cc4CCc4cc(Cl)cc(Br)c43)CC2)CC1 (some centres unmarked) [Compound 29.0] | ≤ 8.72 | – |
| C[C@]1(CCC(=O)N2CCC([C@H]3c4ncc(Br)cc4CCc4cc(Cl)cc(Br)c43)CC2)CCCCC1=O [Compound 20.0] | ≤ 8.72 | – |
| CC(=O)NN=C1CCC(CC(=O)N2CCC([C@H]3c4ncc(Br)cc4CCc4cc(Cl)cc(Br)c43)CC2)CC1 (some centres unmarked) [Compound 30.0] | ≤ 8.72 | – |
| O=C(CN1CCC(=NO)CC1)N1CCC([C@H]2c3ncc(Br)cc3CCc3cc(Cl)cc(Br)c32)CC1 [Compound 26.0] | ≤ 8.72 | – |
| O=C(C1CCC2(CC1)OCCO2)N1CCC([C@H]2c3ncc(Br)cc3CCc3cc(Cl)cc(Br)c32)CC1 [Compound 34.0] | ≤ 8.72 | – |
| CCOC(=O)C(=O)N[C@H]1CC[C@@H](C(=O)N2CCC([C@H]3c4ncc(Br)cc4CCc4cc(Cl)cc(Br)c43)CC2)CC1 [Compound 39.0] | ≤ 8.72 | – |
| NC(=O)C(=O)NC1CCCC(C(=O)N2CCC([C@H]3c4ncc(Br)cc4CCc4cc(Cl)cc(Br)c43)CC2)C1 (some centres unmarked) [Compound 49.1] | ≤ 8.72 | – |
